In the supplement of paper PMC10307832:

Tests used:
Assay in all cases: relative viability (nuclei count vs DMSO), 5 days (fraction); higher = more cells survive
[1] = compound: C1/C(=C\C2=CC=CS2)/C(=O)/C(=C/C3=CC=CS3)/C1 + CC(=O)Nc1cccc(-n2c(=O)n(C3CC3)c(=O)c3c(Nc4ccc(I)cc4F)n(C)c(=O)c(C)c32)c1 [Trametinib] (partner 0.02 µM)
Summary of the method: (§1)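 For relative viability, nuclei counts in treated wells were divided by those in vehicle wells. Lung cancer cell lines had been pin-tool dosed in 1536-well plates the day after seeding and cultured for 5 days, then fixed and stained in one step (final 0.05% Triton X-100, 1% formaldehyde, 1 ug/ml Hoechst) and imaged at 4×. Doses were one drug alone or a fixed anchor-drug dose plus five library-drug doses (not always all listed) in √10 steps, and values are duplicate-plate medians.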

[2] = compound: C1/C(=C\C2=CC=CS2)/C(=O)/C(=C/C3=CC=CS3)/C1 + COc1cccc2cc(-c3nc([C@H]4CC[C@H](C(=O)O)CC4)n4ncnc(N)c34)[nH]c12 [OSI-027] (partner 0.5 µM)
Summary of the method: as §1

[3] = compound: C[C@]12O[C@H](C[C@]1(O)CO)n1c3ccccc3c3c4c(c5c6ccccc6n2c5c31)CNC4=O [Lestaurtinib] + C[C@]1(O)C[C@@H](c2nc(-c3ccc4ccc(-c5ccccc5)nc4c3)c3c(N)nccn32)C1 [Linsitinib] (partner 1 µM)
Summary of the method: as §1

[4] = compound: C[C@]12O[C@H](C[C@]1(O)CO)n1c3ccccc3c3c4c(c5c6ccccc6n2c5c31)CNC4=O [Lestaurtinib] + Cc1cc(Nc2cc(N3CCN(C)CC3)nc(Sc3ccc(NC(=O)C4CC4)cc3)n2)n[nH]1 [Tozasertib] (partner 0.1 µM)
Summary of the method: as §1

| Cell Line | relative viability ([1]; first compound 0.2 µM) | relative viability ([1]; first compound 0.6325 µM) | relative viability ([1]; first compound 2 µM) | relative viability ([1]; first compound 6.325 µM) | relative viability ([1]; first compound 20 µM) | relative viability ([2]; first compound 0.2 µM) | relative viability ([2]; first compound 0.6325 µM) | relative viability ([2]; first compound 2 µM) | relative viability ([2]; first compound 6.325 µM) | relative viability ([2]; first compound 20 µM) | relative viability ([3]; first compound 0.005 µM) | relative viability ([3]; first compound 0.01581 µM) | relative viability ([3]; first compound 0.05 µM) | relative viability ([3]; first compound 0.1581 µM) | relative viability ([3]; first compound 0.5 µM) | relative viability ([4]; first compound 0.005 µM) | relative viability ([4]; first compound 0.01581 µM) | relative viability ([4]; first compound 0.05 µM) | relative viability ([4]; first compound 0.1581 µM) | relative viability ([4]; first compound 0.5 µM) |
| --- | --- | --- | --- | --- | --- | --- | --- | --- | --- | --- | --- | --- | --- | --- | --- | --- | --- | --- | --- | --- |
| NCI-H596 | 0.807 | 0.763 | 0.871 | 0.699 | 0.727 | 0.76 | 0.781 | 1.01 | 0.699 | 0.794 | 1.04 | 1.01 | 0.882 | 1.21 | 0.907 | 0.885 | 1.16 | 0.746 | 1.06 | 0.955 |
| NCI-H647 | 0.464 | 0.49 | 0.407 | 0.467 | 0.447 | 0.624 | 0.716 | 0.67 | 0.391 | 0.684 | 1.08 | 0.818 | 0.828 | 0.265 | 0.311 | 0.375 | 0.328 | 0.188 | 0.124 | 0.126 |
| NCI-H650 | 1.11 | 1 | 0.884 | 0.943 | 0.944 | 0.578 | 0.465 | 0.591 | 0.53 | 0.485 | 0.79 | 0.915 | 0.503 | 0.455 | 0.179 | 0.727 | 0.802 | 0.603 | 0.483 | 0.29 |
| NCI-H661 | 0.593 | 0.602 | 0.585 | 0.523 | 0.549 | 0.766 | 0.753 | 0.736 | 0.664 | 0.735 | 0.543 | 0.609 | 0.556 | 0.474 | 0.262 | 0.359 | 0.361 | 0.395 | 0.423 | 0.417 |
| NCI-H727 | 0.379 | 0.414 | 0.373 |  | 0.374 | 0.716 | 0.58 | 0.975 | 0.592 | 0.582 | 0.306 | 0.255 | 0.28 | 0.285 | 0.18 | 0.598 | 0.728 | 0.63 | 0.584 | 0.41 |
| NCI-H838 | 0.491 | 0.516 | 0.488 | 0.448 | 0.44 | 0.412 | 0.38 | 0.409 | 0.491 | 0.365 | 1.04 | 1.01 | 0.759 | 0.507 | 0.146 | 0.275 | 0.238 | 0.275 | 0.2 | 0.171 |
| NCI-H1355 | 0.42 | 0.43 | 0.457 | 0.341 | 0.407 | 0.481 | 0.42 | 0.412 | 0.335 | 0.424 | 0.795 | 0.838 | 0.546 | 0.451 | 0.302 | 0.51 | 0.52 | 0.377 | 0.441 | 0.287 |
| NCI-H1395 | 1.13 | 0.996 | 1.08 | 0.88 | 1.09 | 0.672 | 0.614 | 0.772 | 0.597 | 0.643 | 1.07 | 1.2 | 0.836 | 0.894 | 0.421 | 0.773 | 0.791 | 0.64 | 0.721 | 0.46 |
